For assay [1], the system named is male Sprague-Dawley rats. In words: sustained attention task (vigilance index). Format: in vivo, rat. Here is the method:
The vigilance index (VI) of rats treated with SK609 was evaluated using the following protocol. Substantively, eight water restricted male Sprague-Dawley rats were trained in an operant task of sustained attention (McGaughy & Sarter, 1995, Psychopharm. 117:340-357). In response to both signal and non-signal conditions, a water reward was given for correct responses as a positive reinforcer. Rats were first trained by successive approximation to establish lever pressing behavior. Subjects were then trained to criterion performance on the sustained attention task with a 1,000 msec light stimulus duration and then transferred to 15 msec stimulus duration.
Performance was determined based on a rat's calculated VI: VI=(h−f)/[2*(h+f)−(h+f)^2], wherein h (relative hits)=# Hits/(# Hits+# Misses), and f ([…])=# False Alarms/(# False Alarms+# Correct Rejections).
VI of 1 indicates complete vigilance; VI of 0.35 indicates above chance vigilance; and VI of −1 indicates no vigilance.
Testing occurred over a 45 min session of randomly presented signal and non-signal trials. Criterion performance required a rat to achieve greater than 59% signal and non-signal trials, a VI greater than 0.35 and less than 25% omissions per day for three consecutive days. Once subjects stabilized at a baseline, their responses are no longer considered random.
SK609 was administered intraperitoneally (IP) at various doses 15 min prior to beginning the task. Prazosin was administered IP 30 min prior, and SK609 15 min prior to beginning the task. Data are presented as difference scores for VI from an average baseline (FIGS. 4-6).
The operant conditioning chambers contained a house light (2.8 W), a stimulus light (2.8 W), a pair of retractable levers and water reward apparatus. Eight water-restricted male Sprague-Dawley rats were trained in an operant task of sustained attention. In response to both signal and non-signal conditions, a water reward was given for correct responses as a positive reinforcer.
Rats were first trained by successive approximation to establish lever pressing behavior. Subsequently, the rats were trained to criterion performance. Criterion performance required a rat to achieve greater than 59% signal and non-signal trials, a VI greater than 0.35 and less than 25% omissions per day for three consecutive days.
Prazosin (0.25 mg/kg) and raclopride (0.05 mg/kg) were administered (IP) 30 min prior to the experiment followed by either SK609 (4.0 mg/kg) or MPH (2.0 mg/kg) 15 min prior to beginning the task. Performance was determined based on a rat's calculated Vigilance Index (VI). Data are presented as difference scores for VI from an average baseline.

The subject of assay [2] is male Sprague-Dawley rats. In words: set-shifting task. Format: in vivo, rat. The note with it: IP, SK609 4.0 mg/kg or raclopride 0.05 mg/kg, versus saline. The source says: Sixteen food-restricted male Sprague-Dawley rats were trained to discriminate between a pair of small ceramic pots in order to retrieve a food reward buried within one of the pots. A pair of pots differed from each other along three possible dimensions: scent, digging medium, or material covering the outer surface of the pot.
Simple discriminations (SD) were made between pots differing from each other along one dimension. Compound Discriminations (CD) were made between pots differing along two dimensions. Intra-dimensional Shifts (IDS) were changes made within a previously tested dimension. Extra-Dimensional Shifts (EDS) were changes made to a previously untested dimension.
Animals were tested on their ability to form an attentional set by attending to the dimension that predicts the food reward. Animals were then tested on their ability to make an IDS, EDS, or reversal by responding only to the new salient dimension while suppressing the urge to respond to the previously salient stimulus.
0.9% saline (1 mg/kg), raclopride (0.05 mg/kg) or SK609 (4 mg/kg) were administered (IP) 30 prior to the experiment followed by 0.9% saline (1 mg/kg) 15 min prior to beginning the task. Animals were tested to criterion performance of 5 consecutive correct trials.

For the next assay, the target named is hSERT (Homo sapiens, UniProt P31645). In words: effect on efflux of monoamine neurotransmitters, hSERT. Format: cell-based.
The target of the next assay is hDAT (Homo sapiens, UniProt Q01959). In words: effect on efflux of monoamine neurotransmitters, hDAT. Format: cell-based.
For the next assay, the target named is hNET (Homo sapiens, UniProt P23975). The assay can be described thus: effect on efflux of monoamine neurotransmitters, hNET. It counts as cell-based.
For assay [3], the system named is male Sprague-Dawley rats. The assay can be described thus: cross maze task. Format: in vivo, rat. The source says: The experimental design for cross maze task was adapted from Stefani et al, 2003, Behav. Neurosci. 117(4):728-37 (FIG. 7). Ten food-restricted male Sprague-Dawley rats were acclimated to a cross maze whose arms differed by color (red vs blue) or texture (smooth vs rough). A food reward was placed in a food well located at the end of the arm.
Rats were trained to form a mental set by associating a food reward with one feature of one dimension. Rats were subsequently tested on their ability to predict the food reward based on one feature of the alternative dimension.
0.9% saline (1 mg/kg), raclopride (0.05 mg/kg) or SK609 (4 mg/kg) were administered (IP) 30 prior to the experiment, followed by 0.9% saline (1 mg/kg) 15 min prior to beginning the task. Animals were tested to criterion performance of 8 consecutive correct trials.

Setting [4] is: SK609 IP 4.0 mg/kg, prazosin IP 0.25 mg/kg or raclopride IP 0.05 mg/kg 30 min prior.
The mark [5] stands for this setting: SK609 peak dose 8 mg/kg, FIG. 4.
Setting [6] is: efflux measured as percentage of vehicle, FIG. 1.
Setting [7] is: panel of monoamine neurotransmitter transporters.

We go through 3 molecules from patent publication US10695302B2, “Treatments for attention and cognitive disorders, and for dementia associated with a neurodegenerative disorder” (priority 2013, dated 2020).

Sequence of hSERT (P31645 whole entry): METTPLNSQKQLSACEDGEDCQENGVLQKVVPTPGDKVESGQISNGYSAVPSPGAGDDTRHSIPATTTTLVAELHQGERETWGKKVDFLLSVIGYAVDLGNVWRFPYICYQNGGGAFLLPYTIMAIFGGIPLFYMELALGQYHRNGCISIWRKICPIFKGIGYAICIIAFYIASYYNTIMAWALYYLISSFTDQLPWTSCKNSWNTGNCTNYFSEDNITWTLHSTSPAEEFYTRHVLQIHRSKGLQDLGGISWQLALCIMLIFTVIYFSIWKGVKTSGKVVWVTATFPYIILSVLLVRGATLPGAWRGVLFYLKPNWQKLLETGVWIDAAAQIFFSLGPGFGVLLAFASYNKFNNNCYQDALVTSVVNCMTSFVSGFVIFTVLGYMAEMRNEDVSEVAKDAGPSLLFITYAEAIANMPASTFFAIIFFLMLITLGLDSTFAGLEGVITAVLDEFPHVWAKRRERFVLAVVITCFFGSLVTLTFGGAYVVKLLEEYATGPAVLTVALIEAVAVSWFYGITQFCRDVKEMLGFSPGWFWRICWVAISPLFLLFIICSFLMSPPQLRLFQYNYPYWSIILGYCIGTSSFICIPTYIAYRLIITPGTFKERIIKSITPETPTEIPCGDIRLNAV
Sequence of hDAT (Q01959 whole entry): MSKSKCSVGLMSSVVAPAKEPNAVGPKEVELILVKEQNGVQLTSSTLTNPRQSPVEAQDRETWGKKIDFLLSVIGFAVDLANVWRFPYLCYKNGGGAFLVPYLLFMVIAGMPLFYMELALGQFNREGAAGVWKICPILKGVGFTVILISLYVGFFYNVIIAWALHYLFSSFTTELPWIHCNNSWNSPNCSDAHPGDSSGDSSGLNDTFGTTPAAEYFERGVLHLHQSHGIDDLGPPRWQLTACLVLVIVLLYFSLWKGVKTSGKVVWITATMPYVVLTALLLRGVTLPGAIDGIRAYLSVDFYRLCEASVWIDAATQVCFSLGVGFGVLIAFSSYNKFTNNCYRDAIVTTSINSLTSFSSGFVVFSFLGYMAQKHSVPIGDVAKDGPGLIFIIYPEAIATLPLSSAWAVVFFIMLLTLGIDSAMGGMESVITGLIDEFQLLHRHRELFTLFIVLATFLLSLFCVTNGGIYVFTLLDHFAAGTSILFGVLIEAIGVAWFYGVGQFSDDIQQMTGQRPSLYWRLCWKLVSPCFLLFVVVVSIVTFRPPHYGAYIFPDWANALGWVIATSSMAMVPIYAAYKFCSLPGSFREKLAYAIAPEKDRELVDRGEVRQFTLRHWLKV
Sequence of hNET (P23975 whole entry): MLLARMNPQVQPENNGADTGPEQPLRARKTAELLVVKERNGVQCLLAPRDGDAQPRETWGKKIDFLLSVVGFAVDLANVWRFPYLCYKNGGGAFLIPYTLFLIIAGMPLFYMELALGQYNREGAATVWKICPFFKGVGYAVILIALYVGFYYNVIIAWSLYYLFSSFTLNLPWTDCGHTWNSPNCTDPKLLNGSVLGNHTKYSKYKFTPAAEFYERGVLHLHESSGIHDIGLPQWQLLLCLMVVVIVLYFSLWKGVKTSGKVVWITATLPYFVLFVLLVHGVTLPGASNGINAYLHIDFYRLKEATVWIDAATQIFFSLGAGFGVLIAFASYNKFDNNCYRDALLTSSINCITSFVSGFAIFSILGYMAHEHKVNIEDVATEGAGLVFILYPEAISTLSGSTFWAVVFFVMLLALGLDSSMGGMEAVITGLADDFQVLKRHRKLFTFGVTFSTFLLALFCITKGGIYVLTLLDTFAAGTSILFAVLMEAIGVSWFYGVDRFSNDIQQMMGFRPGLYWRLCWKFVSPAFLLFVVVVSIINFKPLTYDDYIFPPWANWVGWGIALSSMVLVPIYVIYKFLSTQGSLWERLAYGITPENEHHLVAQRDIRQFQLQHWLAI

Take `COc1cc2nc(N3CCN(C(=O)c4ccco4)CC3)nc(N)c2cc1OC` [prazosin, 2-[4-(2-furoyl)piperazin-1-yl]-6,7-dimethoxyquinazolin-4-amine, reference compound]: the “effect of antagonist pre-treatment on MPH VI performance” value with male Sprague-Dawley rats [1] (MPH IP 2.0 mg/kg, prazosin IP 0.25 mg/kg, n=8) is “blocked the effects”. Moreover, the “effect of antagonist pre-treatment on SK609 VI performance” value is recorded as “blocked the effects” with male Sprague-Dawley rats [1] (setting [4]) and “completely abrogated” in the assay on male Sprague-Dawley rats [1] (setting [5]).

On to `CCN1CCC[C@H]1CNC(=O)c1c(O)c(Cl)cc(Cl)c1OC` [raclopride, 3,5-dichloro-N-{[(2S)-1-ethylpyrrolidin-2-yl]methyl}-2-hydroxy-6-methoxybenzamide, reference compound], for which the “effect of antagonist pre-treatment on SK609 VI performance” value in the assay on male Sprague-Dawley rats [1] (setting [4]) was “blocked the effects”; in the assay on male Sprague-Dawley rats [1] (setting [5]) it was “moderately”. In the assay with male Sprague-Dawley rats [2], the “performance in EDS, IDS, CD of set-shifting task” value was “impairments in performance relative to controls”.

What is called IC50 is the concentration needed to halve the response being measured. For the molecule `CC(N)CCc1ccccc1Cl` (stereo not shown) [SK609, 4-(2-chlorophenyl)-butan-2-amine], the IC50 at hSERT (setting [6]) turned out to be 35.9 µM; on hDAT (setting [6]) it was 8.5 µM; on hNET (setting [6]), 0.29 µM. Also, the “effect on serotonin transporters (SERT)” value on hSERT (setting [7]) was “no effect”. In addition, the “effect on dopamine transporters (DAT)” value on hDAT (setting [7]) is “no effect”. For the same molecule, the “effect on NET” value at hNET (setting [7]) is “selective NET antagonism”. For the same molecule, in the assay with male Sprague-Dawley rats [1] (IP, doses 2, 4, 8, 10 and 20 mg/kg, inverted-U dose response), the “peak dose for vigilance index (VI) performance” value is given as 8 mg/kg. The “% omissions” value in the assay on male Sprague-Dawley rats [1] (SK609 8 mg/kg IP) was “without increasing omissions”; in the assay on male Sprague-Dawley rats [1] (SK609 high doses IP), “increased the % of omissions”. Also, the “sustained attention (VI difference from baseline)” value with male Sprague-Dawley rats [1] (SK609 8 mg/kg IP, 15 min prior to task) is “enhanced sustained attention”. Also, the “performance in EDS, IDS, CD of set-shifting task” value in the assay on male Sprague-Dawley rats [2] was “did not differ significantly from saline”. The “cross maze overall performance in 8 trial increments over 80 trials” value with male Sprague-Dawley rats [3] (SK609 IP 4.0 mg/kg vs saline, p=0.008, FIG. 10B) was “improved performance faster and maintained improvements better than saline”. Also, the “cross maze performance (number of trials to reach criterion)” value in the assay with male Sprague-Dawley rats [3] (SK609 IP 4.0 mg/kg, n=5 vs saline n=2, p=0.027, FIG. 10A) is “improved performance relative to saline”.
